In US10766926B2, “Composition for autophagy inhibiting in cell, and pharmaceutical composition for preventing or treating tumor disease, or inhibiting anti-cancer agents resistance containing the same” (L-BASE CO., LTD, priority 2018, dated 2020):

How the values were obtained:
[1] = tested on: PC9 cell line and PC9-ER cell line; experiment: MTT assay, resistance of PC9 and PC9-ER cell lines to anticancer agents; format: cell-based; conditions: anticancer agent 1/10-fold serial dilution, 24 hours, FIGS. 3A and 3B
Method: The cancer cell line (PC9) used in the present invention was cultured in a minimum essential medium in a conditioned incubator (37° C.) supplemented with 10% fetal bovine serum and antibiotics. The cancer cell line (PC9-ER) was constructed to have resistance by exposing to erlotinib as an anticancer agent for a long period of time.
Additionally, the MTT assay was performed so as to confirm the resistance of the PC9 cell line and the PC9-ER cell line to anticancer agents.
(§1) Specifically, an equal number of the PC9 cell line and the PC9-ER cell line were cultured in a 96-well cell culture plate, treated with an anticancer agent subjected to a 1/10-fold serial dilution for 24 hours, and confirmed using MTT. As an experiment to utilize the principle that NADH present in the mitochondria of a living cell reacts with MTT to form formazan, formazan was dissolved in DMSO and its absorbance was measured at 570 nm and thereby the growth activity of the cells was confirmed.

PC9-ER cell line [2] = experiment: MTT assay, resistance of PC9-ER cell line to anticancer agent after polypeptide treatment; format: cell-based; conditions: conclusion of Example 2
Method: Additionally, the PC9-ER cell line was treated with the polypeptide 1, polypeptide 2, and GNTITIKT (polypeptide 3), respectively, and the MTT assay was performed so as to confirm the resistance of the PC9-ER cell line to anticancer agents.
as §1, with “Specifically,” for “Specifically, an equal number of the PC9 cell line and”, “was plated on” for “were cultured in”, “plate and” for “plate,”, “treated with each of the polypeptides (1 to 3) for 24 hours. Then, the cells were treated for” for “treated”, “hours” for “hours,”

H1975 cell line = experiment: MTT assay, resistance of H1975 cell line to osimertinib after polypeptide treatment; format: cell-based; conditions: for anticancer activity through the inhibition of autophagy: conclusion of Example 5
Method: Additionally, after the treatment with the polypeptide 1, polypeptide 2, and polypeptide 3, respectively, the MTT assay was performed so as to confirm the resistance to osimertinib (Tagrisso), an anticancer agent.
Specifically, an equal number of cells of the H1975 cell line were plated into a 96-well cell culture plate and treated with the polypeptides (1 to 3) for 24 hours. Then, the cells were treated with osimertinib (Tagrisso), an anticancer agent, which was subjected to a 1/10-fold serial dilution, for 24 hours and were confirmed using MTT. As an experiment to utilize the principle that NADH present in the mitochondria of a living cell reacts with MTT to form formazan, formazan was dissolved in DMSO and its absorbance was measured at 570 nm and thereby the growth activity of the cells was confirmed.

PC9-ER cell line [3] = experiment: LC3 immunofluorescence staining in PC9-ER cell line; format: cell-based; conditions: 24 hours after treatment, confocal microscopy, FIG. 5
Method: Additionally, the cells were subjected to immunofluorescence staining after treating the PC9-ER cell line with the polypeptide 2.
(§2) Specifically, 24 hours after treating the PC9-ER cell line with the polypeptide 2, the cells were fixed at room temperature using 4% formaldehyde. Then, the cells were reacted at room temperature for 30 minutes so as to prevent inaccurate binding to antibodies using PBS containing 0.1% BSA, and allowed to react with LC3 antibodies (cell signaling) at 4° C. for 24 hours. After removing the antibodies, the cells were washed with PBS and allowed to react with secondary antibodies (Thermo Fisher) labeled with Alexa 488 fluorescence at room temperature for 1.5 hours. After the reaction, the cells from which antibodies were removed were washed with PBS and stained with DAPI (Thermo Fisher) for 1 minute.

MCF7^R cell line [4] = experiment: LC3 immunofluorescence staining in MCF7^R cell line; format: cell-based; conditions: 24 hours treatment, confocal microscopy, FIG. 13
Method: Additionally, after the treatment with the polypeptide 2 in the MCF7^R cell line, the immunofluorescence staining was performed.
as §2, with “Specifically,” for “Specifically, 24 hours”, “polypeptide 2 on the MCF7^R” for “PC9-ER”, “for 24 hours,” for “with the polypeptide 2,”

MCF7^R cell line [5] = experiment: western blot of autophagy controlling proteins in MCF7^R cell line; format: cell-based; conditions: FIG. 12
Method: MCF7^R cancer cell line having resistance to anticancer agents was constructed to have resistance by exposing to celastrol for a long period of time
To examine the effects of the polypeptide 1 and the polypeptide 2 on the proteins of autophagy controlling mechanism, western blot was performed using each labeled antibody in the MCF7^R cell line.

PC9-ER cell line [6] = experiment: western blot of autophagy mechanism proteins in PC9-ER cell line treated with polypeptide; format: cell-based; conditions: FIG. 4
Method: An attempt was made to confirm the inhibitory effects of SPTPKT (polypeptide 1) and QTATAKA (polypeptide 2) against autophagy, based on the results that the expression of ATG5 and ATG5-ATG12 proteins which are known to be involved in autophagy in the cancer cell line (PC9-ER).
Specifically, the PC9-ER cell line was treated with each of the polypeptide 1 and the polypeptide 2 and the expression levels of Beclin1, p-Belclin1, ATG5-ATG12, LC3 I, and LC3 II (i.e., proteins associated with autophagy mechanism) were compared by western blot method, and the results are shown in FIG. 4.

PC9-ER cell line [7] = experiment: inhibitory effect against tumor formation, PC9-ER tumor in nude mice; format: in vivo, athymic nude mice (BALB/C nude); conditions: PC9-ER tumor in nude mice, 0, 50, 100, 200 μg/mouse, 5 injections through caudal vein, measured on day 41; FIGS. 8A-8C
Method: (§3) Specifically, athymic nude mice (BALB/C nude, 5 to 6-week old females) were subcutaneously injected on the side with the PC9-ER cell line (2×10^6 cells/mouse) to induce tumor. When the tumor volume reached about 150 mm^3, the polypeptide 2 was injected a total of 5 times through the caudal vein and the changes in the tumor size were examined. The tumor volume was directly measured using a caliper and calculated by the following equation (length×width×height×0.5). In order to confirm the inhibitory effect of the polypeptide 2 against tumor formation, the peptide (at concentrations of 0 μg/mouse, 50 μg/mouse, 100 μg/mouse, and 200 μg/mouse) was injected 5 times through the caudal vein from day 25 at 3 day intervals. On the 41st day, the tumors were separated and the sizes of the tumor volumes were measured, and western blot was performed using each labeled antibody.

PC9-ER cell line [8] = experiment: western blot of tumor tissue from PC9-ER tumor-bearing nude mice; format: in vivo, athymic nude mice (BALB/C nude); conditions: 50-200 μg/mouse, FIG. 9
Method: as §3

H1975 cells = experiment: western blot of autophagy controlling proteins in H1975 cells; format: cell-based; conditions: FIG. 10

Compound | resistance of PC9-ER cell line to the anticancer agent compared to PC9 cell line [1] | inhibitory effect against autophagy in the cancer cell line having resistance to anticancer agents (PC9-ER cell line [2]) | anticancer activity through the inhibition of autophagy (H1975 cell line) | expression level of p62 protein (MCF7^R cell line [5]) | expression levels of p-Beclin1, ATG5, ATG5-ATG12, LC3 I and LC3 II proteins (MCF7^R cell line [5]) | expression levels of Beclin1, p-Beclin1, ATG5-ATG12, LC3 I and LC3 II proteins (PC9-ER cell line [6]) | expression of p-AMPK, p-Beclin1, ATG5, ATG5-ATG12, LC3 I and LC3 II (H1975 cells) | further results
CC(=O)O[C@@]12CO[C@@H]1C[C@H](O)[C@@]1(C)C(=O)[C@H](O)C3=C(C)[C@@H](OC(=O)[C@H](O)[C@@H](NC(=O)OC(C)(C)C)c4ccccc4)C[C@@](O)([C@@H](OC(=O)c4ccccc4)[C@H]21)C3(C)C [docetaxel] | higher resistance |  |  |  |  |  |  | 
CC(=O)O[C@H]1C(=O)[C@@]2(C)[C@H]([C@H](OC(=O)c3ccccc3)[C@]3(O)C[C@H](OC(=O)[C@H](O)[C@@H](NC(=O)c4ccccc4)c4ccccc4)C(C)=C1C3(C)C)[C@]1(OC(C)=O)CO[C@@H]1C[C@@H]2O [taxol] | higher resistance |  |  |  |  |  |  | 
GNTITIKT [polypeptide 3] |  | inhibitory effect against autophagy | anticancer activity |  |  |  |  | 
QTATAKA [polypeptide 2] |  | inhibitory effect against autophagy | anticancer activity | increased | reduced | lowered | lowered | expression level of LC3 puncta (PC9-ER cell line [3]): lowered; expression level of LC3 puncta (MCF7^R cell line [4]): lowered; size of tumors (tumor volume) (PC9-ER cell line [7]): significantly reduced; resistance to osimertinib (Tagrisso), polypeptide at different concentrations (H1975 cell line; MTT): reduced in a concentration-dependent manner; expression of p-AMPK, Beclin1 and p-Beclin1 proteins in tumor tissue (PC9-ER cell line [8]): decreased in a concentration-dependent manner; expression of p-mTOR and p62 proteins in tumor tissue (PC9-ER cell line [8]): increased in a concentration-dependent manner
SPTPKT [polypeptide 1] |  | inhibitory effect against autophagy | anticancer activity | increased | reduced | lowered | lowered | 
